Experimental data reported in patent US6211439A, “Herbicide resistance in plants” (MGI Pharma, Inc, priority 1995, dated 2001).
≈ marks a conversion by molar mass, not a printed value.

Experiments:
[1] = test system: AHAS activity from line UV18; experiment: AHAS activity assay, line UV18; format: biochemical, maize; details: 3×10^-6 to 3×10^-4 M 997
Procedure: (§1) Assays were conducted as a modification of the procedure of Smith et al. (1979, Molec. Gen. Genet. 169: 299-314). Plant cell culture material was ground with sand in a cold mortar and pestle in an equal quantity (w/v) of cell disruption media containing 0.05 M potassium phosphate (pH 7.0), 0.1 mM MgSO4, and 0.5 mM dithiothreitol. The preparation was centrifuged at 11,000×g for 20 minutes and the supernatant assayed for AHAS activity. Assays were conducted in 1 ml volumes containing 0.05 M potassium phosphate (pH 8.0), 40 mM pyruvate, 5 mM MgCl2, 0.1 mM thiamine pyrophosphate, 0.2 ml cell extract, and various concentrations of the herbicide of interest. The reaction mixtures were incubated at 30° C. for 75 minutes and the reaction terminated with the addition of 0.1 ml of 50% (v/v) H2 SO4. Following further incubation at 40° C. for 20 minutes, the acetoin formed from acetolactate by acidification was quantitated using the method of Westerfield (1945, J. Biol. Chem. 161: 495). To 0.2 ml of reaction mixture, 0.8 ml of water, 0.5 ml of 0.5% (w/v) creatine, and 0.5 ml of 5% (w/v) naphthol in 10% (w/v) NaOH was added. After mixing, solutions were incubated at room temperature for one hour. The development of pink color was quantitated by measuring light absorbance at 530 nm. […]

[2] = test system: Callus tissue from line QJ22; experiment: Callus growth inhibition, line QJ22; format: cell-based, maize; details: line QJ22 vs control tissue; based on herbicide amount giving 50% reduction in growth rate
Procedure: Callus tissue from line QJ22 was tested also with the compound 567. The numbers represent the fold increase in herbicide concentration that can be tolerated by each of the cell lines as compared to control tissue. The values were calculated based on the amount of herbicide that gave a 50% reduction in growth rate.

[3] = test system: isozymes of AHAS (I, II and III); experiment: E. coli AHAS isozymes assayed in vitro; format: biochemical; details: millimolar concentrations
Description: Genes encoding AHAS are common to the aspartate and branched chain amino acid pathways in plants and microorganisms (Umbarger, 1978, Ann. Rev. Biochem, 47: 533-606). AHAS catalyzes the first step in the synthesis of the amino acids leucine, valine and isoleucine. AHAS activity is regulated in vivo by various end products or combination of end products of the biosynthetic pathway. AHAS genes with a variety of regulatory characteristics are available from microorganisms including, but not limited to, Escherichia coli, yeast and Neurospora. These might include AHAS genes which are naturally resistant to the imidazolinone herbicides. […] Resistance of E. coli to AC 243,997 therefore appears to be the result of an insensitive site of action as opposed to being a result of metabolism of the herbicide. Resistance in other organisms is likely to be of the same nature, providing a variety of sources of a gene encoding an herbicide resistant AHAS. The genes encoding all three E. coli isozymes have been cloned and sequenced. Selection for imidazolinone resistant mutant AHAS genes in microorganisms or plants including plant tissue cultures would provide a diverse source of genes which, when transferred to plants, produce herbicide resistant plants.

[4] = test system: AHAS activity from line QJ22; experiment: AHAS activity assay, line QJ22; format: biochemical, maize; details: 3×10^-6 to 3×10^-4 M 997
Procedure: as §1

line XA17 tissue = experiment: Callus growth inhibition, resistant line XA17; format: cell-based, maize; details: Zea mays, 336 h, read-out: level giving a 50% growth inhibition
Procedure: Therefore the effects of 214 were determined on callus growth. Quantities of tissue averaging 90 mg in size were transferred to nutrient agar maintenance media containing concentrations of 214 ranging from 0.003 to 3 mg per liter. Eight tissue pieces were placed on each plate with three plates per herbicide concentration. After 14 days growth, the tissue was weighed again.
Initially, the maximum level of 214 in which line XA17 would grow stably was determined. Stock tissue which had been maintained in the presence of 0.1 mg per liter 214 was transferred to media containing 214 levels ranging up to 30 mg per liter. Tissue was maintained for several subculture intervals and the growth rate evaluated.

control seedlings = experiment: Seedling assay, control (herbicide sensitive) seedlings; format: in vivo, maize
Description: Seeds to be used as controls in the heritability assay were obtained from regenerated plants from an herbicide sensitive cell line of the same genetic background as line XA17. These regenerated plants were crossed with pollen obtained from a herbicide sensitive inbred B73 plant grown from seed. Seeds were harvested approximately forty days after pollination.
Twenty control seeds and ten XA17 seeds were surface sterilized with 2.6% sodium hypochlorite for twenty minutes and then washed with sterile distilled water. The seed was imbibed overnight in sterile water containing a small quantity of the fungicide, captan (N-trichloromethylthio-4-cyclohexene-1,2-dicarboximide). The mature embryos were then excised from the seed and plated scutellum side down on solid MS media without 2,4-D. Ten control seeds were plated on media containing no 214 and ten were plated in the presence of 6×10^-8M 214 which had been incorporated into the medium after autoclaving but before gelling. All ten XA17 seeds were plated in the presence of 6×10^-8 M 214. Seedlings were evaluated seven days after plating.
XA17 seeds homozygous for the resistance trait were obtained as described in Section 6.4.6. […] Assays were conducted as described in Section 6.4.5.

cell line XA119 = experiment: Tolerance of cell line XA119 at the cellular level; format: cell-based, maize
[5] = control seedlings, 6×10^-8 M 214, seven days after plating

In the case of `CC(C)C1(C)NC(c2ncccc2C(=O)O)=NC1=O` (centres unmarked) [compound 997, 2-(5-isopropyl-5-methyl-4-oxo-2-imidazolin-2-yl)nicotinic acid], the “tolerance of AHAS activity vs AHAS from control cultures” value [1] is reported as “more tolerant”, the “Callus Growth Fold Increase in Tolerance” value [2] is reported as 30-50 fold and the “sensitivity of AHAS isozymes I, II and III” value [3] is reported as “insensitive to millimolar concentrations”. The “tolerance of AHAS activity vs AHAS from control cultures” value [4] was “more tolerant” and the IC50 (line XA17 tissue) was greater than 30 µg/mL.
For `CC(C)C1(C)NC(c2nc3ccccc3cc2C(=O)O)=NC1=O` (centres unmarked) [compound 214, 2-(5-isopropyl-5-methyl-4-oxo-2-imidazolin-2-yl)3-quinolinecarboxylic acid], the IC50 (control seedlings; Zea mays, read-out: concentration inhibiting shoot growth 50%) was 30 nM, the average root length (control seedlings; [5]) was 1.1 cm and the average shoot length (control seedlings; [5]) was 1.5 cm. The “Callus Growth Fold Increase in Tolerance” value [2] was 5 fold, the IC50 (line XA17 tissue) was 30 µg/mL (≈ 96.4 µM) and the “enhancement of tolerance at the cellular level” value (cell line XA119) was “approximately three fold”.
